Laboratory results published in patent US10981894B2, “Melanocortin subtype-2 receptor (MC2R) antagonists and uses thereof” (Crinetics Pharmaceuticals, Inc., priority 2018, dated 2021).

Target: hMC2 receptor (Homo sapiens, UniProt Q01718)
Test: hMC2 membrane binding assay ([125I]ACTH (1-39) Tyr23, SPA)
Parameters: scale not given here
Conditions: crude hMC2R membranes from CRE-bla-CHO-K1 cells expressing hMC2 receptor and hMRAP; [125I]ACTH (1-39) Tyr23 0.2 nM; 1.5 hours at room temperature; read-out: MC2R binding potency
Outline: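 Ki comes from non-linear regression of SPA scintillation counts. Displacement of 0.2 nM [125I]ACTH(1-39) Tyr23 by compound dose series (usually 0–10,000 nM final) ran 1.5 h at room temperature. Membranes came from CHO-K1 CRE-bla cells stably expressing hMC2R plus hMRAP, bead-coupled in pH 7.4 buffer with 0.2% BSA.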

hMC2 receptor, sequence (Q01718 whole entry): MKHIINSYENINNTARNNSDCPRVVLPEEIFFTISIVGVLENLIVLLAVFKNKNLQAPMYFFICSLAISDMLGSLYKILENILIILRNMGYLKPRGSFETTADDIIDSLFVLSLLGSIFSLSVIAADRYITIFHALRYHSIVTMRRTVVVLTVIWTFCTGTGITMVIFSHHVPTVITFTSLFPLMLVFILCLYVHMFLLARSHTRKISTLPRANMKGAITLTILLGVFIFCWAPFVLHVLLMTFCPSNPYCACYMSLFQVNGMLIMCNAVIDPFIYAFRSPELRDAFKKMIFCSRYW
hMC2 receptor, sequence (Q8TCY5 whole entry partner): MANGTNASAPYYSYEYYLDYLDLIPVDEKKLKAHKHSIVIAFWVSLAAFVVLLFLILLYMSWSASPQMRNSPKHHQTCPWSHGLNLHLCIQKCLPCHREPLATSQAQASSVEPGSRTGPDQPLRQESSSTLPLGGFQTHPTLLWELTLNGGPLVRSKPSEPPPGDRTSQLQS

SMILES	Ki
CCOc1ccccc1-c1ccc(N2CCN(C(=O)N3CCC[C@H]3C(F)(F)F)C[C@H]2CC)c(C(=O)N[C@H]2CCNC2)n1 [Compound 1-343, 6-(2-ethoxyphenyl)-3-[(2R)-2-ethyl-4-[(2S)-2-(trifluoromethyl)pyrrolidine-1-carbonyl]piperazin-1-yl]-N-[(3S)-pyrrolidin-3-yl]pyridine-2-carboxamide]	< 10 nM
CCOc1ccccc1-c1ccc(N2CCN(C(=O)C3(C(F)(F)F)CCC3)C[C@H]2CC)c(C(=O)N[C@@H]2CCN(C)C2)n1 [Compound 1-344, 6-(2-ethoxyphenyl)-3-[(2R)-2-ethyl-4-[1-(trifluoromethyl)cyclobutanecarbonyl]piperazin-1-yl]-N-[(3R)-1-methylpyrrolidin-3-yl]pyridine-2-carboxamide]	< 10 nM
CCOc1ncccc1-c1ccc(N2CCN(C(=O)N3CCC[C@H]3c3ccccc3)C[C@H]2CC)c(C(=O)N[C@@H]2CCNC2)n1 [Compound 1-345, 2′-ethoxy-5-[(2R)-2-ethyl-4-[(2S)-2-phenylpyrrolidine-1-carbonyl]piperazin-1-yl]-N-[(3R)-pyrrolidin-3-yl]-[2,3′-bipyridine]-6-carboxamide]	< 10 nM
CCOc1ncccc1-c1ccc(N2CCN(C(=O)N3CCc4cccc(Cl)c43)C[C@H]2CC)c(C(=O)N[C@@H]2CCNC2)n1 [Compound 1-346, 5-[(2R)-4-(7-chloro-2,3-dihydro-1H-indole-1-carbonyl)-2-ethylpiperazin-1-yl]-2′-ethoxy-N-[(3R)-pyrrolidin-3-yl]-[2,3′-bipyridine]-6-carboxamide]	< 10 nM
CCOc1ccccc1-c1ccc(N2CCN(C(=O)OC(C(C)(C)C)C(F)(F)F)C[C@H]2CC)c(C(=O)N[C@@H]2CCNC2)n1 (stereo partly drawn) [Compound 1-348, 1,1,1-trifluoro-3,3-dimethylbutan-2-yl (3R)-4-[6-(2-ethoxyphenyl)-2-{[(3R)-pyrrolidin-3-yl]carbamoyl}pyridin-3-yl]-3-ethylpiperazine-1-carboxylate]	< 10 nM
CCOc1ccccc1-c1ccc(N2CCN(C(=O)C3(CC(F)(F)F)CCC3)C[C@H]2CC)c(C(=O)N[C@@H]2CCN(C)C2)n1 [Compound 1-349, 6-(2-ethoxyphenyl)-3-[(2R)-2-ethyl-4-[1-(2,2,2-trifluoroethyl)cyclobutanecarbonyl]piperazin-1-yl]-N-[(3R)-1-methylpyrrolidin-3-yl]pyridine-2-carboxamide]	< 10 nM
CCOc1ncccc1-c1ccc(N2CCN(C(=O)N3CCc4cccc(F)c43)C[C@H]2CC)c(C(=O)N[C@@H]2CCNC2)n1 [Compound 1-350, 2′-ethoxy-5-[(2R)-2-ethyl-4-(7-fluoro-2,3-dihydro-1H-indole-1-carbonyl)piperazin-1-yl]-N-[(3R)-pyrrolidin-3-yl]-[2,3′-bipyridine]-6-carboxamide]	< 10 nM
CCOc1ncccc1-c1ccc(N2CCN(C(=O)O[C@H](c3ccccc3)C(F)(F)F)C[C@H]2CC)c(C(=O)N[C@@H]2CCNC2)n1 [Compound 1-351, (1R)-2,2,2-trifluoro-1-phenylethyl (3R)-4-(2′-ethoxy-6-{[(3R)-pyrrolidin-3-yl]carbamoyl}-[2,3′-bipyridin]-5-yl)-3-ethylpiperazine-1-carboxylate]	< 10 nM
CCOc1ncccc1-c1ccc(N2CCN(C(=O)C3(c4ccccc4)CCCC3)C[C@H]2CC)c(C(=O)N[C@@H]2CCNC2)n1 [Compound 1-352, 2′-ethoxy-5-[(2R)-2-ethyl-4-(1-phenylcyclopentanecarbonyl)piperazin-1-yl]-N-[(3R)-pyrrolidin-3-yl]-[2,3′-bipyridine]-6-carboxamide]	< 10 nM
CCOc1ncccc1-c1ccc(N2CCN(C(=O)C3(c4ccccc4)CCC3)C[C@H]2CC)c(C(=O)N[C@@H]2CCNC2)n1 [Compound 1-353, 2′-ethoxy-5-[(2R)-2-ethyl-4-(1-phenylcyclobutanecarbonyl)piperazin-1-yl]-N-[(3R)-pyrrolidin-3-yl]-[2,3′-bipyridine]-6-carboxamide]	< 10 nM
CCOc1ncccc1-c1ccc(N2CCN(C(=O)C34CCC(CC3(F)F)C4(C)C)C[C@H]2CC)c(C(=O)N[C@@H]2CCNC2)n1 (stereo partly drawn) [Compound 1-354, 5-[(2R)-4-[2,2-difluoro-7,7-dimethylbicyclo[2.2.1]heptane-1-carbonyl]-2-ethylpiperazin-1-yl]-2′-ethoxy-N-[(3R)-pyrrolidin-3-yl]-[2,3′-bipyridine]-6-carboxamide]	< 10 nM
CCOc1ccccc1-c1ccc(N2CCN(C(=O)N3CCC[C@@H]3C(C)(C)C)C[C@H]2CC)c(C(=O)N[C@@H]2CCNC2)n1 [Compound 1-356, 3-[(2R)-4-[(2R)-2-tert-butylpyrrolidine-1-carbonyl]-2-ethylpiperazin-1-yl]-6-(2-ethoxyphenyl)-N-[(3R)-pyrrolidin-3-yl]pyridine-2-carboxamide]	< 10 nM
CCOc1ncccc1-c1ccc(N2CCN(C(=O)c3ccc(Cl)cc3C(F)(F)F)C[C@H]2CC)c(C(=O)NCCN2CC(F)C2)n1 [Compound 1-357, 5-[(2R)-4-[4-chloro-2-(trifluoromethyl)benzoyl]-2-ethylpiperazin-1-yl]-2′-ethoxy-N-[2-(3-fluoroazetidin-1-yl)ethyl]-[2,3′-bipyridine]-6-carboxamide]	< 10 nM

Other lines, results leading:

Ki	SMILES
< 10 nM	CCOc1ncccc1-c1ccc(N2CCN(C(=O)C3(C(F)(F)F)CCCC3)C[C@H]2CC)c(C(=O)NC[C@@H]2CCCN2C)n1 [Compound 1-332, 2′-ethoxy-5-[(2R)-2-ethyl-4-[1-(trifluoromethyl)cyclopentanecarbonyl]piperazin-1-yl]-N-{[(2S)-1-methylpyrrolidin-2-yl]methyl}-[2,3′-bipyridine]-6-carboxamide]
< 10 nM	CCOc1ncccc1-c1ccc(N2CCN(C(=O)C3(C(F)(F)F)CCCC3)C[C@H]2CC)c(C(=O)NC[C@H]2CCCN2C)n1 [Compound 1-333, 2′-ethoxy-5-[(2R)-2-ethyl-4-[1-(trifluoromethyl)cyclopentanecarbonyl]piperazin-1-yl]-N-{[(2R)-1-methylpyrrolidin-2-yl]methyl}-[2,3′-bipyridine]-6-carboxamide]
< 10 nM	CCOc1ncccc1-c1ccc(N2CCN(C(=O)C3(C(F)(F)F)CCCC3)C[C@H]2CC)c(C(=O)NCC2(OC)CN(C)C2)n1 [Compound 1-334, 2′-ethoxy-5-[(2R)-2-ethyl-4-[1-(trifluoromethyl)cyclopentanecarbonyl]piperazin-1-yl]-N-[(3-methoxy-1-methylazetidin-3-yl)methyl]-[2,3′-bipyridine]-6-carboxamide]
< 10 nM	CCOc1ccccc1-c1ccc(N2CCN(C(=O)[C@H]3CC[C@@H](C(F)(F)F)CC3)C[C@H]2CC)c(C(=O)N[C@@H]2CCNC2)n1 [Compound 1-335, 6-(2-ethoxyphenyl)-3-[(2R)-2-ethyl-4-[cis-4-(trifluoromethyl)cyclohexanecarbonyl]piperazin-1-yl]-N-[(3R)-pyrrolidin-3-yl]pyridine-2-carboxamide]
< 10 nM	CCOc1ccccc1-c1ccc(N2CCN(C(=O)[C@H]3CC[C@@H](C(F)(F)F)CC3)C[C@H]2CC)c(C(=O)N[C@@H]2CCN(C)C2)n1 [Compound 1-336, 6-(2-ethoxyphenyl)-3-[(2R)-2-ethyl-4-[cis-4-(trifluoromethyl)cyclohexanecarbonyl]piperazin-1-yl]-N-[(3R)-1-methylpyrrolidin-3-yl]pyridine-2-carboxamide]
< 10 nM	CCOc1ncccc1-c1ccc(N2CCN(C(=O)C3(C(F)(F)F)CCCC3)C[C@H]2CC)c(C(=O)NCCN2CCC2)n1 [Compound 1-337, N-[2-(azetidin-1-yl)ethyl]-2′-ethoxy-5-[(2R)-2-ethyl-4-[1-(trifluoromethyl)cyclopentanecarbonyl]piperazin-1-yl]-[2,3′-bipyridine]-6-carboxamide]
< 10 nM	CCOc1ccccc1-c1ccc(N2CCN(C(=O)OC3(C(F)(F)F)CCC3)C[C@H]2CC)c(C(=O)N[C@@H]2CCNC2)n1 [Compound 1-338, 1-(trifluoromethyl)cyclobutyl (3R)-4-[6-(2-ethoxyphenyl)-2-{[(3R)-pyrrolidin-3-yl]carbamoyl}pyridin-3-yl]-3-ethylpiperazine-1-carboxylate]
< 10 nM	CCOc1ncccc1-c1ccc(N2CCN(C(=O)C3(C(F)(F)F)CC4CCC3C4)C[C@H]2CC)c(C(=O)NCC2CN(C)C2)n1 (stereo partly drawn) [Compound 1-339, 2′-ethoxy-5-[(2R)-2-ethyl-4-[2-(trifluoromethyl)bicyclo[2.2.1]heptane-2-carbonyl]piperazin-1-yl]-N-[(1-methylazetidin-3-yl)methyl]-[2,3′-bipyridine]-6-carboxamide]
< 10 nM	CCOc1ccccc1-c1ccc(N2CCN(C(=O)C3(C(F)(F)F)CCCC3)C[C@H]2CC)c(C(=O)NCC2CN(C)C2)n1 [Compound 1-340, 6-(2-ethoxyphenyl)-3-[(2R)-2-ethyl-4-[1-(trifluoromethyl)cyclopentanecarbonyl]piperazin-1-yl]-N-[(1-methylazetidin-3-yl)methyl]pyridine-2-carboxamide]
< 10 nM	CCOc1ccccc1-c1ccc(N2CCN(C(=O)C3(C(F)(F)F)CCCC3)C[C@H]2CC)c(C(=O)N[C@@H]2CCN(C)C2)n1 [Compound 1-341, 6-(2-ethoxyphenyl)-3-[(2R)-2-ethyl-4-[1-(trifluoromethyl)cyclopentanecarbonyl]piperazin-1-yl]-N-[(3R)-1-methylpyrrolidin-3-yl]pyridine-2-carboxamide]
< 10 nM	CCOc1ccccc1-c1ccc(N2CCN(C(=O)N3CCC[C@H]3C(F)(F)F)C[C@H]2CC)c(C(=O)N[C@@H]2CCNC2)n1 [Compound 1-342, 6-(2-ethoxyphenyl)-3-[(2R)-2-ethyl-4-[(2S)-2-(trifluoromethyl)pyrrolidine-1-carbonyl]piperazin-1-yl]-N-[(3R)-pyrrolidin-3-yl]pyridine-2-carboxamide]
